Data on 17 compounds can be found in ChEMBL document CHEMBL5518181, “Studies of antibacterial activity (in vitro and in vivo) and mode of action for des-acyl tridecaptins (DATs)” (Eur J Med Chem, 2024).

Data set [1] can be described thus: Hemolytic activity in human red blood cells at 400 ug/ml incubated for 45 mins by spectrophotometric analysis relative to control. Format: toxicity, cell-based, Erythrocyte. The note with it: red blood cells (erythrocytes), at 400 µg/mL, read-out: Activity.
The next data set relates to Escherichia coli. Kind of data set: Antibacterial activity against wild-type Escherichia coli ATCC 25922 assessed as inhibition of bacterial growth incubated for 18 hrs. It is filed as functional. The note with it: read-out: MIC100.
Data set [2] can be described thus: Cytotoxicity against human HepG2 cells incubated for 40 hrs by celltiter-glo luminescent cell viability assay. It is filed as toxicity, cell-based.
For the next data set, the system named is Klebsiella pneumoniae. Kind of data set: Antibacterial activity against wild-type Klebsiella pneumoniae ATCC 13883 assessed as inhibition of bacterial growth incubated for 18 hrs. Format: functional. The note with it: read-out: MIC100.

By IC50 is commonly meant the concentration needed to halve the response being measured. A higher IC50 goes with a need for much substance.

Values after ≈ are worked out from the molar mass of the structure shown. Bounds are passed on as bounds.

Consider `CC[C@H](C)[C@@H](NC(=O)[C@@H](NC(=O)[C@H](CCC(=O)O)NC(=O)[C@H](Cc1ccccc1)NC(=O)[C@@H](CCN)NC(=O)[C@H](CCN)NC(=O)[C@H](CO)NC(=O)[C@@H](Cc1c[nH]c2ccccc12)NC(=O)[C@@H](CO)NC(=O)CNC(=O)[C@@H](CCN)NC(=O)[C@H](NC(=O)[C@@H](N)CCN)C(C)C)C(C)C)C(=O)N[C@@H](C)C(=O)O`, for which, in data set [1], the hemolysis at 0.75 h, 400 ug/ml was found to be 10%. Besides, the MIC in the data set on Escherichia coli and in the data set on Klebsiella pneumoniae was 64 µg/mL (≈ 42.8 µM) throughout. The IC50 at 40 h in data set [2] was above 70 µg/mL.
With `CC[C@H](C)[C@@H](NC(=O)[C@@H](NC(=O)[C@H](CCC(=O)O)NC(=O)[C@H](Cc1ccccc1)NC(=O)[C@@H](CCN)NC(=O)[C@H](CCN)NC(=O)[C@H](CO)NC(=O)[C@@H](C)NC(=O)[C@@H](CO)NC(=O)CNC(=O)[C@@H](CCN)NC(=O)[C@H](N)C(C)C)C(C)C)C(=O)N[C@@H](C)C(=O)O`, in data set [1], the hemolysis at 0.75 h, 400 ug/ml was 0%. Moreover, the MIC with Escherichia coli and with Klebsiella pneumoniae was above 64 µg/mL in each case. Further, the half-inhibitory concentration (IC50) at 40 h in data set [2] is above 170 µg/mL.
For the compound `CC[C@H](C)[C@@H](NC(=O)[C@@H](NC(=O)[C@H](CCC(=O)O)NC(=O)[C@H](Cc1ccccc1)NC(=O)[C@@H](CN)NC(=O)[C@H](CCN)NC(=O)[C@H](CO)NC(=O)[C@@H](Cc1c[nH]c2ccccc12)NC(=O)[C@@H](CO)NC(=O)CNC(=O)[C@@H](CCN)NC(=O)[C@H](NC(=O)[C@H](C)N)C(C)C)C(C)C)C(=O)N[C@@H](C)C(=O)O`, in data set [1], the hemolysis at 0.75 h, 400 ug/ml came out at 0%. In addition, the MIC in the data set with Escherichia coli and in the data set on Klebsiella pneumoniae was above 64 µg/mL each time. This compound also displayed a concentration for half-maximal inhibition (IC50) at 40 h in data set [2] above 170 µg/mL.
With `CC[C@H](C)[C@@H](NC(=O)[C@@H](NC(=O)[C@H](CCC(=O)O)NC(=O)[C@H](Cc1ccccc1)NC(=O)[C@@H](CCN)NC(=O)[C@H](CCN)NC(=O)[C@H](CO)NC(=O)[C@@H](Cc1c[nH]c2ccccc12)NC(=O)[C@@H](CO)NC(=O)CNC(=O)[C@@H](CN)NC(=O)[C@H](N)C(C)C)C(C)C)C(=O)N[C@@H](C)C(=O)O`, the hemolysis at 0.75 h, 400 ug/ml in data set [1] is 6.3%. For the same compound, the MIC in the data set on Escherichia coli and in the data set on Klebsiella pneumoniae was 32 µg/mL (≈ 23.2 µM) in each case. The compound also came in with an IC50 at 40 h in data set [2] of 125 µg/mL (≈ 90.5 µM).
As to `CC[C@H](C)[C@@H](NC(=O)[C@@H](NC(=O)[C@H](CCC(=O)O)NC(=O)[C@H](Cc1ccccc1)NC(=O)[C@@H](CCN)NC(=O)[C@H](CCN)NC(=O)[C@H](CO)NC(=O)[C@@H](Cc1c[nH]c2ccccc12)NC(=O)[C@@H](CO)NC(=O)CNC(=O)[C@@H](CCN)NC(=O)[C@H](N)CC(=O)O)C(C)C)C(=O)N[C@@H](C)C(=O)O`, the hemolysis at 0.75 h, 400 ug/ml in data set [1] amounted to 0%. For the same compound, the MIC in the data set with Escherichia coli and in the data set on Klebsiella pneumoniae was above 64 µg/mL throughout. Moreover, the half-inhibitory concentration (IC50) at 40 h in data set [2] was above 170 µg/mL.
As for `CC[C@H](C)[C@@H](NC(=O)[C@@H](NC(=O)[C@H](CCC(=O)O)NC(=O)[C@H](Cc1ccccc1)NC(=O)[C@@H](CCN)NC(=O)[C@H](C)NC(=O)[C@H](CO)NC(=O)[C@@H](Cc1c[nH]c2ccccc12)NC(=O)[C@@H](CO)NC(=O)CNC(=O)[C@@H](CCN)NC(=O)[C@H](N)C(C)C)C(C)C)C(=O)N[C@@H](C)C(=O)O`, the hemolysis at 0.75 h, 400 ug/ml in data set [1] was found to be 5.9%. Besides, the values for the MIC with Escherichia coli and in the data set on Klebsiella pneumoniae were above 64 µg/mL and 64 µg/mL (≈ 46.9 µM), respectively. The compound further had an IC50 at 40 h in data set [2] of 126 µg/mL (≈ 92.3 µM).
Consider `CC(C)[C@H](NC(=O)[C@H](CCC(=O)O)NC(=O)[C@H](Cc1ccccc1)NC(=O)[C@@H](CCN)NC(=O)[C@H](CCN)NC(=O)[C@H](CO)NC(=O)[C@@H](Cc1c[nH]c2ccccc12)NC(=O)[C@@H](CO)NC(=O)CNC(=O)[C@@H](CCN)NC(=O)[C@H](NC(=O)[C@H](C)N)C(C)C)C(=O)N[C@@H](C(=O)N[C@@H](C)C(=O)O)C(C)(C)C`, for which the hemolysis at 0.75 h, 400 ug/ml in data set [1] was 71.2%. For the same compound, the MIC with Escherichia coli was found to be 2 µg/mL (≈ 1.36 µM); in the data set with Klebsiella pneumoniae, 1 µg/mL (≈ 0.682 µM). This compound also came in with a concentration for half-maximal inhibition (IC50) at 40 h in data set [2] of 23 µg/mL (≈ 15.7 µM).
For `CC[C@H](C)[C@@H](NC(=O)[C@@H](NC(=O)[C@H](CCC(=O)O)NC(=O)[C@H](Cc1ccccc1)NC(=O)[C@@H](CCN)NC(=O)[C@H](CCN)NC(=O)[C@H](CO)NC(=O)[C@@H](Cc1c[nH]c2ccccc12)NC(=O)[C@@H](CO)NC(=O)CNC(=O)[C@@H](CCN)NC(=O)[C@H](NC(=O)C(C)(C)N)C(C)C)C(C)C)C(=O)N[C@@H](C)C(=O)O` the same measures were 8.5%, 8 µg/mL (≈ 5.41 µM), 8 µg/mL (≈ 5.41 µM) and 83 µg/mL (≈ 56.1 µM).
For the compound `CC[C@H](C)[C@@H](NC(=O)[C@@H](NC(=O)[C@H](CC(=O)O)NC(=O)[C@H](Cc1ccccc1)NC(=O)[C@@H](CCN)NC(=O)[C@H](CCN)NC(=O)[C@H](CO)NC(=O)[C@@H](Cc1c[nH]c2ccccc12)NC(=O)[C@@H](CO)NC(=O)CNC(=O)[C@@H](CCN)NC(=O)[C@H](N)C(C)C)C(C)C)C(=O)N[C@@H](C)C(=O)O`, in data set [1], the hemolysis at 0.75 h, 400 ug/ml stood at 0%. Moreover, the MIC in the data set on Escherichia coli and in the data set with Klebsiella pneumoniae was 64 µg/mL (≈ 46.4 µM) throughout. The same compound registered a half-maximal inhibitory concentration (IC50) at 40 h in data set [2] above 170 µg/mL.
As for `CC[C@H](C)[C@@H](NC(=O)[C@@H](NC(=O)[C@H](CCC(=O)O)NC(=O)[C@H](Cc1ccccc1)NC(=O)[C@@H](CCN)NC(=O)[C@H](CCN)NC(=O)[C@H](C)NC(=O)[C@@H](Cc1c[nH]c2ccccc12)NC(=O)[C@@H](CO)NC(=O)CNC(=O)[C@@H](CCN)NC(=O)[C@H](NC(=O)[C@H](C)N)C(C)C)C(C)C)C(=O)N[C@@H](C)C(=O)O`, in data set [1], the hemolysis at 0.75 h, 400 ug/ml amounted to 0%. Moreover, the values for the MIC with Escherichia coli and with Klebsiella pneumoniae were 4 µg/mL (≈ 2.76 µM) and 8 µg/mL (≈ 5.52 µM), respectively. Also, the IC50 at 40 h in data set [2] was above 170 µg/mL.
For `CC[C@H](C)[C@@H](NC(=O)[C@@H](NC(=O)[C@H](CCC(=O)O)NC(=O)[C@H](Cc1ccccc1)NC(=O)[C@@H](CCN)NC(=O)[C@H](CCN)NC(=O)[C@H](CO)NC(=O)[C@@H](Cc1c[nH]c2ccccc12)NC(=O)[C@@H](CO)NC(=O)[C@H](CCN)NC(=O)[C@@H](CCN)NC(=O)[C@H](N)C(C)C)C(C)C)C(=O)N[C@@H](C)C(=O)O` the same measures were 0.3%, 32 µg/mL (≈ 22.3 µM), 64 µg/mL (≈ 44.5 µM) and above 170 µg/mL.
Consider `CC[C@H](C)[C@@H](NC(=O)[C@@H](NC(=O)[C@H](CCC(=O)O)NC(=O)[C@H](Cc1ccccc1)NC(=O)[C@@H](CCN)NC(=O)[C@H](CCN)NC(=O)[C@H](CO)NC(=O)[C@@H](Cc1c[nH]c2ccccc12)NC(=O)[C@@H](CO)NC(=O)CNC(=O)[C@@H](CCN)NC(=O)[C@H](NC(=O)CN)C(C)C)C(C)C)C(=O)N[C@@H](C)C(=O)O`, for which, in data set [1], the hemolysis at 0.75 h, 400 ug/ml is 0%. For the same compound, the MIC in the data set on Escherichia coli and in the data set on Klebsiella pneumoniae was 32 µg/mL (≈ 22 µM) each time. The IC50 at 40 h in data set [2] was above 70 µg/mL.
Regarding `CC[C@H](C)[C@@H](NC(=O)[C@@H](NC(=O)[C@H](CCC(=O)O)NC(=O)[C@H](Cc1ccccc1)NC(=O)[C@@H](CCN)NC(=O)[C@H](CCN)NC(=O)[C@H](CO)NC(=O)[C@@H](Cc1c[nH]c2ccccc12)NC(=O)[C@@H](CO)NC(=O)CNC(=O)[C@@H](C)NC(=O)[C@H](NC(=O)[C@H](C)N)C(C)C)C(C)C)C(=O)N[C@@H](C)C(=O)O`, the hemolysis at 0.75 h, 400 ug/ml in data set [1] amounted to 0.6%. Besides, the values for the MIC in the data set with Escherichia coli and in the data set on Klebsiella pneumoniae were above 64 µg/mL and 64 µg/mL (≈ 44.5 µM), respectively. The compound also displayed an IC50 at 40 h in data set [2] above 170 µg/mL.
For the compound `CC[C@H](C)[C@@H](NC(=O)[C@@H](NC(=O)[C@H](CCC(=O)O)NC(=O)[C@H](Cc1ccccc1)NC(=O)[C@@H](CCN)NC(=O)[C@H](CCN)NC(=O)[C@H](CC(=O)O)NC(=O)[C@@H](Cc1c[nH]c2ccccc12)NC(=O)[C@@H](CO)NC(=O)CNC(=O)[C@@H](CCN)NC(=O)[C@H](N)C(C)C)C(C)C)C(=O)N[C@@H](C)C(=O)O`, in data set [1], the hemolysis at 0.75 h, 400 ug/ml is 0%. Moreover, the MIC in the data set on Escherichia coli and in the data set on Klebsiella pneumoniae was above 64 µg/mL each time. Further, the IC50 at 40 h in data set [2] is above 170 µg/mL.
For the compound `CC[C@H](C)[C@@H](NC(=O)[C@@H](NC(=O)[C@H](CCC(=O)O)NC(=O)[C@H](Cc1ccccc1)NC(=O)[C@@H](CCN)NC(=O)[C@H](CCN)NC(=O)[C@H](CO)NC(=O)[C@@H](Cc1c[nH]c2ccccc12)NC(=O)[C@@H](CO)NC(=O)[C@H](C)NC(=O)[C@@H](CCN)NC(=O)[C@H](NC(=O)[C@H](C)N)C(C)C)C(C)C)C(=O)N[C@@H](C)C(=O)O`, the hemolysis at 0.75 h, 400 ug/ml in data set [1] was found to be 31.9%. Moreover, the MIC in the data set with Escherichia coli is 16 µg/mL (≈ 10.8 µM); in the data set with Klebsiella pneumoniae, 32 µg/mL (≈ 21.6 µM). In addition, in data set [2], the IC50 at 40 h came out at 74 µg/mL (≈ 50 µM).
For `CC[C@H](C)[C@H](NC(=O)[C@H](CCC(=O)O)NC(=O)[C@H](Cc1ccccc1)NC(=O)[C@@H](CCN)NC(=O)[C@H](CCN)NC(=O)[C@H](CO)NC(=O)[C@@H](Cc1c[nH]c2ccccc12)NC(=O)[C@@H](CO)NC(=O)CNC(=O)[C@@H](CCN)NC(=O)[C@H](N)C(C)C)C(=O)N[C@@H](C(=O)N[C@@H](C)C(=O)O)[C@@H](C)CC` the same measures were 70.6%, 32 µg/mL (≈ 22.7 µM), 16 µg/mL (≈ 11.4 µM) and above 60 µg/mL.
With `CC[C@H](C)[C@@H](NC(=O)[C@H](C)NC(=O)[C@H](CCC(=O)O)NC(=O)[C@H](Cc1ccccc1)NC(=O)[C@@H](CCN)NC(=O)[C@H](CCN)NC(=O)[C@H](CO)NC(=O)[C@@H](Cc1c[nH]c2ccccc12)NC(=O)[C@@H](CO)NC(=O)CNC(=O)[C@@H](CCN)NC(=O)[C@H](N)C(C)C)C(=O)N[C@@H](C)C(=O)O`, the hemolysis at 0.75 h, 400 ug/ml in data set [1] was found to be 0.8%. The MIC in the data set on Escherichia coli is above 64 µg/mL; in the data set on Klebsiella pneumoniae, 64 µg/mL (≈ 46.8 µM). Further, half-maximal inhibition in data set [2] (IC50 at 40 h) required 58 µg/mL (≈ 42.4 µM).
